{"source": "patent US11352339B2", "about": "(MISSION THERAPEUTICS LIMITED, priority 2016, dated 2022)", "note": "pIC50: −log10 of the molar value."}
{"target": "USP30 (Homo sapiens (Human), UniProt Q70CQ3)", "sequence (Q70CQ3 57-517)": "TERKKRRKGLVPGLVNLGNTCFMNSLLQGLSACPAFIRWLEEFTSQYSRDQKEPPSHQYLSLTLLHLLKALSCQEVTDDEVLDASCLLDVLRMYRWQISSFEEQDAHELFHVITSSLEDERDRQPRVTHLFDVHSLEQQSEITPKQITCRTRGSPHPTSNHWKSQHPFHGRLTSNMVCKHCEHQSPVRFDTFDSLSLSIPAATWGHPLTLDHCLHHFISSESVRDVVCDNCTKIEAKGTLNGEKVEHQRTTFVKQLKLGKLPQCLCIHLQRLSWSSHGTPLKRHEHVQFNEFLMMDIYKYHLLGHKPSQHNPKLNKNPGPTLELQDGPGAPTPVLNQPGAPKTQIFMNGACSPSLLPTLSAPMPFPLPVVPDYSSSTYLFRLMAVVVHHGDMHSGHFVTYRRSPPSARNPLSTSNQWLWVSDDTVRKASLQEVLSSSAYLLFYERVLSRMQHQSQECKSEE", "test": "USP30 Biochemical IC50 Assay", "settings": "fluorescence polarisation, TAMRA labelled peptide linked to ubiquitin; 30 min pre-incubation, read after 2 h; read-out: IC50 range", "experimental": "Reactions were performed in duplicate in black 384 well plates (small volume, Greiner 784076) in a final reaction volume of 21 μl. Either 1 μl of 50% DMSO or diluted compound was added to the plate. […] Enzyme and compound were incubated for 30 min at room temp. Reactions were initiated by the addition of 50 nM of TAMRA labelled peptide linked to ubiquitin via an iso-peptide bond as fluorescence polarisation substrate. Reactions were read immediately after addition of substrate and following a 2 h incubation at room temperature. Readings were performed on a Pherastar Plus (BMG Labtech). λ Excitation 540 nm; λ Emission 590 nm."}
{"molecule": "Cc1ccc(-c2cccc(-c3nc(C4CCCN4C#N)no3)c2)cn1", "note": "(centres unmarked) [Example 154, 2-(5-(3-(6-Methylpyridin-3-yl)phenyl)-1,2,4-oxadiazol-3-yl)pyrrolidine-1-carbonitrile]", "pIC50": "6.00 to 7.00"}
{"molecule": "N#CN1CCCC1c1noc(-c2cccc(-c3cncnc3)c2)n1", "note": "(centres unmarked) [Example 159, 2-(5-(3-(Pyrimidin-5-yl)phenyl)-1,2,4-oxadiazol-3-yl)pyrrolidine-1-carbonitrile]", "pIC50": "5.00 to 6.00"}
{"molecule": "N#Cc1cccc(-c2ccc3nc(C4CCN(C#N)C4)[nH]c3c2)c1", "note": "(centres unmarked) [Example 72, 3-(6-(3-Cyanophenyl)-1H-benzo[d]imidazol-2-yl)pyrrolidine-1-carbonitrile]", "pIC50": "6.00 to 7.00"}
{"molecule": "N#CN1CCC(c2nnc(-c3ccc(-c4ccccc4)cc3)[nH]2)C1", "note": "(centres unmarked) [Example 112, 3-(3-([1,1′-Biphenyl]-4-yl)-1H-1,2,4-triazol-5-yl)pyrrolidine-1-carbonitrile]", "pIC50": "6.00 to 7.00"}
{"molecule": "CC(C)Cn1cc(-c2ccc3nc(C4CCN(C#N)C4)[nH]c3c2)cn1", "note": "(centres unmarked) [Example 78, 3-(6-(1-Isobutyl-1H-pyrazol-4-yl)-1H-benzo[d]imidazol-2-yl)pyrrolidine-1-carbonitrile]", "pIC50": "5.00 to 6.00"}
{"molecule": "N#CN1CC[C@@H](c2cc(-c3cccc(-c4cnoc4)c3)[nH]n2)C1", "note": "[Example 32, 3-(5-(3-(Isoxazol-4-yl)phenyl)-1H-pyrazol-3-yl)pyrrolidine-1-carbonitrile]", "pIC50": "5.00 to 6.00"}
{"molecule": "Cc1nc2nc(C3CCN(C#N)C3)[nH]c2cc1-c1ccccc1", "note": "(centres unmarked) [Example 99, 3-(5-Methyl-6-phenyl-3H-imidazo[4,5-b]pyridin-2-yl)pyrrolidine-1-carbonitrile]", "pIC50": "6.00 to 7.00"}
{"molecule": "N#Cc1cnn(-c2nccc(-c3nc([C@@H]4CCCN4C#N)no3)n2)c1", "note": "[Example 187, (S)-1-(4-(3-(1-Cyanopyrrolidin-2-yl)-1,2,4-oxadiazol-5-yl)pyrimidin-2-yl)-1H-pyrazole-4-carbonitrile]", "pIC50": "6.00 to 7.00"}
{"molecule": "C[C@@H]1CN(C#N)C[C@H]1c1n[nH]c(-c2cccc(-c3ccccc3)c2)n1", "note": "(relative stereo) [Example 114, Trans-3-(3-([1,1′-biphenyl]-3-yl)-1H-1,2,4-triazol-5-yl)-4-methylpyrrolidine-1-carbonitrile]", "pIC50": "> 7.00"}
{"molecule": "Cc1noc(C)c1-c1cccc(-c2nc(C3CCCN3C#N)no2)c1", "note": "(centres unmarked) [Example 147, 2-(5-(3-(3,5-Dimethylisoxazol-4-yl)phenyl)-1,2,4-oxadiazol-3-yl)pyrrolidine-1-carbonitrile]", "pIC50": "5.00 to 6.00"}
{"molecule": "N#CN1CCC(c2nc3cc(-c4ccccc4)ccc3[nH]2)C1", "note": "(centres unmarked) [Example 95, 3-(5-Phenyl-1H-benzo[d]imidazol-2-yl)pyrrolidine-1-carbonitrile]", "pIC50": "6.00 to 7.00"}
{"molecule": "N#CN1CCC(c2cc(-c3cncc(-c4ccccc4)c3)[nH]n2)C1", "note": "(centres unmarked) [Example 36, 3-(5-(5-Phenylpyridin-3-yl)-1H-pyrazol-3-yl)pyrrolidine-1-carbonitrile]", "pIC50": "6.00 to 7.00"}
{"molecule": "N#CN1CCC(c2cc(-c3ccc(C(N)=O)cc3)n[nH]2)C1", "note": "(centres unmarked) [Example 4, 4-(5-(1-Cyanopyrrolidin-3-yl)-1H-pyrazol-3-yl)benzamide]", "pIC50": "5.00 to 6.00"}
{"molecule": "N#CN1CCC(c2nnc(-c3ccc4nc[nH]c4c3)[nH]2)C1", "note": "(centres unmarked) [Example 107, 3-(5-(1H-Benzo[d]imidazol-6-yl)-4H-1,2,4-triazol-3-yl)pyrrolidine-1-carbonitrile]", "pIC50": "5.00 to 6.00"}
{"molecule": "N#CN1CCCC1c1noc(-c2ccnc(-c3ccccc3)c2)n1", "note": "(centres unmarked) [Example 167]", "pIC50": "6.00 to 7.00"}
{"molecule": "N#CN1CCCC1c1nnc(-c2cccc(-c3ccccc3)c2)o1", "note": "(centres unmarked) [Example 140, 2-(5-([1,1′-Biphenyl]-3-yl)-1,3,4-oxadiazol-2-yl)pyrrolidine-1-carbonitrile]", "pIC50": "5.00 to 6.00"}
{"molecule": "N#Cc1cc(-c2nccc(-c3nc([C@@H]4CCCN4C#N)no3)n2)ccn1", "note": "[Example 188, (S)-4-(4-(3-(1-Cyanopyrrolidin-2-yl)-1,2,4-oxadiazol-5-yl)pyrimidin-2-yl)picolinonitrile]", "pIC50": "> 7.00"}
{"molecule": "N#Cc1cccc(C2CN(c3noc(C4CCN(C#N)C4)n3)C2)c1", "note": "(centres unmarked) [Example 197, 3-(3-(3-(3-Cyanophenyl)azetidin-1-yl)-1,2,4-oxadiazol-5-yl)pyrrolidine-1-carbonitrile]", "pIC50": "6.00 to 7.00"}
{"molecule": "CCc1cccc(-c2cc(C(=O)NC)c3nc([C@@H]4CCCN4C#N)oc3c2)c1", "note": "[Example 131, (S)-2-(1-Cyanopyrrolidin-2-yl)-6-(3-ethylphenyl)-N-methylbenzo[d]oxazole-4-carboxamide]", "pIC50": "5.00 to 6.00"}
{"molecule": "N#CN1CCC(c2cc(-c3cccc(-c4cnoc4)c3)[nH]n2)C1", "note": "(centres unmarked) [Example 33, 3-(5-(3-(Isoxazol-4-yl)phenyl)-1H-pyrazol-3-yl)pyrrolidine-1-carbonitrile]", "pIC50": "6.00 to 7.00"}
{"molecule": "Cc1ccc(S(=O)(=O)NCc2ccccc2)cc1-c1ccc2oc([C@@H]3CCCN3C#N)nc2c1", "note": "[Example 139, (S)-N-Benzyl-3-(2-(1-cyanopyrrolidin-2-yl)-benzo[d]oxazol-5-yl)-4-methyl-benzenesulfonamide]", "pIC50": "5.00 to 6.00"}
{"molecule": "N#CN1CCCC1c1noc(-c2ccnc(-c3cccc(OC(F)(F)F)c3)c2)n1", "note": "(centres unmarked) [Example 168, 2-(5-(2-(3-(Trifluoromethoxy)phenyl)-pyridin-4-yl)-1,2,4-oxadiazol-3-yl)pyrrolidine-1-carbonitrile]", "pIC50": "6.00 to 7.00"}
{"molecule": "Cc1ccc(F)c(-c2ccc3nc(C4CCN(C#N)C4)[nH]c3c2)c1", "note": "(centres unmarked) [Example 76, 3-(6-(2-Fluoro-5-methylphenyl)-1H-benzo[d]imidazol-2-yl)pyrrolidine-1-carbonitrile]", "pIC50": "> 7.00"}
{"molecule": "N#CN1C[C@@H](c2cc(-c3cccc(-c4ccccc4)c3)n[nH]2)[C@H](C2CC2)C1", "note": "(relative stereo) [Example 46, Trans-3-(3-([1,1′-biphenyl]-3-yl)-1H-pyrazol-5-yl)-4-cyclopropylpyrrolidine-1-carbonitrile]", "pIC50": "6.00 to 7.00"}
{"molecule": "N#Cc1cccc(-c2cc(-c3nc(C4CCCN4C#N)no3)ccn2)n1", "note": "(centres unmarked) [Example 180, 4′-(3-(1-Cyanopyrrolidin-2-yl)-1,2,4-oxadiazol-5-yl)-[2,2′-bipyridine]-6-carbonitrile]", "pIC50": "6.00 to 7.00"}
{"molecule": "N#CN1CCCC1c1noc(-c2cccc(-c3ccc(C(N)=O)cc3)c2)n1", "note": "(centres unmarked) [Example 149, 3′-(3-(1-Cyanopyrrolidin-2-yl)-1,2,4-oxadiazol-5-yl)-[1,1′-biphenyl]-4-carboxamide]", "pIC50": "5.00 to 6.00"}
{"molecule": "C[C@@H]1CN(C#N)C[C@H]1c1cc(-c2ccccc2)n[nH]1", "note": "(relative stereo) [Example 49, Trans-3-methyl-4-(3-phenyl-1H-pyrazol-5-yl)pyrrolidine-1-carbonitrile]", "pIC50": "5.00 to 6.00"}
{"molecule": "Cc1cn(-c2ccc3n(c2=O)CCN([C@@H]2CCN(C#N)C2)C3=O)cn1", "note": "[Example 121, (R)-3-(7-(4-Methyl-1H-imidazol-1-yl)-1,6-dioxo-1,3,4,6-tetrahydro-2H-pyrido[1,2-a]pyrazin-2-yl)pyrrolidine-1-carbonitrile]", "pIC50": "5.00 to 6.00"}
{"molecule": "N#Cc1ccc(-c2cnc3[nH]c(C4CCN(C#N)C4)nc3c2)cc1", "note": "(single isomer, unassigned) [Example 90, 3-(6-(4-Cyanophenyl)-3H-imidazo[4,5-b]pyridin-2-yl)pyrrolidine-1-carbonitrile]", "pIC50": "6.00 to 7.00"}
{"molecule": "Cn1cc(-c2cc(-c3nc([C@@H]4CCN(C#N)C4)no3)ccc2F)cn1", "note": "[Example 70, (R)-3-(5-(4-Fluoro-3-(1-methyl-1H-pyrazol-4-yl)phenyl)-1,2,4-oxadiazol-3-yl)pyrrolidine-1-carbonitrile]", "pIC50": "6.00 to 7.00"}
{"molecule": "N#CN1CCC(c2nc3cc(-c4ccncc4)cnc3[nH]2)C1", "note": "(centres unmarked) [Example 80, 3-(6-(Pyridin-4-yl)-3H-imidazo[4,5-b]pyridin-2-yl)pyrrolidine-1-carbonitrile]", "pIC50": "6.00 to 7.00"}
{"molecule": "Cn1cc(-c2cccc(-c3cc(C4CCN(C#N)C4)n[nH]3)c2)cn1", "note": "(centres unmarked) [Example 31, 3-(5-(3-(1-Methyl-1H-pyrazol-4-yl)phenyl)-1H-pyrazol-3-yl)pyrrolidine-1-carbonitrile]", "pIC50": "5.00 to 6.00"}
{"molecule": "CC[C@@H]1CN(C#N)C[C@H]1c1cc(-c2cccc(-c3ccccc3)c2)n[nH]1", "note": "(relative stereo) [Example 43, trans-3-(3-([1,1′-biphenyl]-3-yl)-1H-pyrazol-5-yl)-4-ethylpyrrolidine-1-carbonitrile]", "pIC50": "6.00 to 7.00"}
{"molecule": "C[C@H]1CN(C#N)C[C@@H]1c1[nH]nc(-c2cccc(-c3ccccc3)c2)c1F", "note": "[Example 23]", "pIC50": "6.00 to 7.00"}
{"molecule": "N#CN1CCC(c2noc(-c3ccc(N4CCOCC4)cc3)n2)C1", "note": "(centres unmarked) [Example 61, 3-(5-(4-Morpholinophenyl)-1,2,4-oxadiazol-3-yl)pyrrolidine-1-carbonitrile]", "pIC50": "5.00 to 6.00"}
{"molecule": "Cn1nccc1-c1cccc(-c2nc(C3CCCN3C#N)no2)c1", "note": "(centres unmarked) [Example 143, 2-(5-(3-(1-Methyl-1H-pyrazol-5-yl)phenyl)-1,2,4-oxadiazol-3-yl)pyrrolidine-1-carbonitrile]", "pIC50": "5.00 to 6.00"}
{"molecule": "C[C@@H]1CN(C#N)C[C@H]1c1cc(-c2cccc(-c3ccccc3)c2)n(C)n1", "note": "[Example 25]", "pIC50": "6.00 to 7.00"}
{"molecule": "N#CN1CCC[C@H]1c1nc(-c2cccc(-c3ccccc3)c2)no1", "note": "[Example 141, (S)-2-(3-([1,1′-Biphenyl]-3-yl)-1,2,4-oxadiazol-5-yl)pyrrolidine-1-carbonitrile]", "pIC50": "6.00 to 7.00"}
{"molecule": "C[C@@H]1CN(C#N)C[C@H]1c1nc(-c2ccccc2)n[nH]1", "note": "(relative stereo) [Example 113, Trans 3-methyl-4-(3-phenyl-1H-1,2,4-triazol-5-yl)pyrrolidine-1-carbonitrile]", "pIC50": "5.00 to 6.00"}
{"molecule": "N#CN1CC[C@@H](c2noc(-c3cc(-c4ccccc4)ccn3)n2)C1", "note": "[Example 63, (R)-3-(5-(4-Phenylpyridin-2-yl)-1,2,4-oxadiazol-3-yl)pyrrolidine-1-carbonitrile]", "pIC50": "6.00 to 7.00"}
{"molecule": "N#CN1CCC(c2[nH]nc(-c3cccc(N4CCCCC4)n3)c2F)C1", "note": "(centres unmarked) [Example 196, 3-(4-Fluoro-3-(6-(piperidin-1-yl)pyridin-2-yl)-1H-pyrazol-5-yl)pyrrolidine-1-carbonitrile]", "pIC50": "6.00 to 7.00"}
